Structures are written as SMILES. Where two headings read alike, the source gives them in different places.

In assay [1] the test system is EBC-1 lung cancer cell line. The assay is described as follows: EBC-1 cell proliferation, CellTiter-Glo assay. Type of assay: cell-based. Conditions: Ebc-1 cell viability, CTG assay, 5 days of treatment, read-out: CTG 5 day Ebc1 GI50. On the procedure:
(§1) The ability of the BCL-xL degrader low molecular weight compounds to inhibit cell proliferation and survival was assessed using the Promega CellTiter-Glo® proliferation assay on the EBC-1 lung cancer cell line (RCB1965, obtained from RIKEN.) The cells were cultured in media that is optimal for their growth at 5% CO2, 37° C. in a tissue culture incubator. Prior to seeding for the proliferation assay, the cells were split at least 2 days before the assay to ensure optimal growth density. On the day of seeding, cells were lifted off tissue culture flasks using 0.25% trypsin. Cell viability and cell density were determined using a cell counter (Vi-Cell XR Cell Viability Analyzer, Beckman Coulter). Cells with higher than 85% viability were seeded in white clear bottom 384-well plates (Greiner cat #781098) at a density of 1000 cells per well in 50 μL of standard growth media. Plates were incubated at 37° C. overnight in a tissue culture incubator.
The BCL-xL degrader low molecular weight compounds were prepared to desired concentrations. A series of 10 dilutions were made for each prepared compound. The prepared compounds were then added to the cells resulting in final concentrations of 0.508 nM-10 μM. An acoustic transfer device (Echo555, Beckman Coulter) was used to add the compounds to the cells. Each treatment was tested in triplicate assay plates. Plates were incubated at 37° C. overnight or for 5 days in a tissue culture incubator. The ability of the compounds to inhibit cell proliferation and survival was assessed using the Promega CellTiter-Glo® proliferation assay. Plates were incubated at room temperature for 20 minutes to stabilize luminescent signals prior to reading using a multimode plate reader (PHERAstar FSX Microplate Reader, BMG Labtech).
To evaluate the effect of the compound treatments, luminescent counts of untreated cells were taken the day after seeding (Day 0 readings), and after 5 days of treatment (Day 5 readings). The Day 5 readings of the untreated cells were compared to the Day 0 readings. Assays with at least one cell doubling during the incubation period were considered valid. To evaluate the effect of the drug treatments, luminescent counts from wells containing untreated cells (100% viability) were used to normalize treated samples. The concentrations of treatment required to inhibit 50% of cell growth or survival ([…]) were calculated using a four parameter logistic regression equation.

A further assay has as its target T1, HiBiT-tagged BCL-xL (Homo sapiens, UniProt Q07817).
T1 construct: expressed in transfected cells; host or cells: NCI-H1650 (ATCC No. CRL-5883), engineered HiBiT cell line
The assay is described as follows: NCI-H1650 BCL-xL protein levels, Nano-Glo HiBiT Lytic Detection. Type of assay: cell-based. The conditions noted are these: NCI-H1650 expressing HiBiT-tagged BCL-xL, overnight incubation, read-out: Bcl-xl HIBIT NCIH1650 DC50. The method, then: as §1, with “degrade BCL-xL protein” for “inhibit cell proliferation and survival”, “Nano-Glo® HiBiT Lytic Detection System. The NCI-H1650 (ATCC No. CRL-5883) was engineered to express HiBiT-tagged BCL-xL. The NCI-H1650 HiBiT” for “CellTiter-Glo® proliferation assay on the EBC-1 lung cancer”, “was” for “(RCB1965, obtained from RIKEN.) The cells were”, “protein level” for “proliferation”, “5000” for “1000”, “30” for “50”
The BCL-xL degrader low molecular weight compounds were prepared to desired concentrations. A series of 10 dilutions were made for each prepared compound. The prepared compounds were then added to the cells resulting in final concentrations of 0.508 nM-10 μM. An acoustic transfer device (Echo555, Beckman Coulter) was used to add the compounds to the cells. Each treatment was tested in triplicate assay plates. Plates were incubated at 37° C. overnight in a tissue culture incubator.
BCL-xL degradation was assessed through the addition of 30 μL of Nano-Glo® HiBiT Lytic Reagent (Promega, cat #N3040), a reagent which lyses cells and contains a furimazine substrate and the large subunit (LgBiT) used in NanoLuc® Binary Technology. The LgBiT subunit having high affinity to a HiBiT-tagged protein will bind HiBiT, if present, resulting in complex formation of a luminescent NanoBiT® enzyme. This reaction will emit a luminescent signal proportional to the amount of HiBiT-tagged BCL-xL present in the cell lysate. Plates were incubated at room temperature for 20 minutes to stabilize luminescent signals prior to reading using a luminescence reader (PHERAstar FSX Microplate Reader, BMG Labtech).
To evaluate the effect of the drug treatments, luminescent counts from wells containing untreated cells (100% HiBiT-tagged BCL-xL) were used to normalize treated samples. The concentrations of treatment required to inhibit 50% were calculated using a four parameter logistic regression equation.
Background: HiBiT is a short tag that completes a luciferase, so light tracks the accessible tagged protein.

T1 sequence (Q07817 whole entry): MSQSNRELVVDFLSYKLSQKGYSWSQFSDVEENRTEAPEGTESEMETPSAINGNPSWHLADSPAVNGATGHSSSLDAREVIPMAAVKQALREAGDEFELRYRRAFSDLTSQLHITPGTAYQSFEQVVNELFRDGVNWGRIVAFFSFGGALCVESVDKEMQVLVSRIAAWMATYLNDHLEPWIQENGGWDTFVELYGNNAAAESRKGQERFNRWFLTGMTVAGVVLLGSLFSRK

Broadly, the GI50 is the concentration that inhibits growth by half. Take `Cc1ncsc1-c1ccc([C@H](C)NC(=O)[C@@H]2C[C@@H](O)CN2C(=O)[C@@H](NC(=O)C[C@H]2CC[C@H](NC(=O)c3nc(N4CCCc5c4nnc(Nc4nc6ccccc6s4)c5C)ccc3-c3cnn(CC45CC6(C)CC(C)(C4)CC(OCCN4CCCC4)(C6)C5)c3C)CC2)C(C)(C)C)cc1` [Example 164, 6-(3-(benzo[d]thiazol-2-ylamino)-4-methyl-6,7-dihydropyrido[2,3-c]pyridazin-8(5H)-yl)-3-(1-(((1r,3R,5S,7s)-3,5-dimethyl-7-(2-(pyrrolidin-1-yl)ethoxy)adamantan-1-yl)methyl)-5-methyl-1H-pyrazol-4-yl)-N-((1S,4R)-4-(2-(((S)-1-((2S,4R)-4-hydroxy-2-(((S)-1-(4-(4-methylthiazol-5-yl)phenyl)ethyl)carbamoyl)pyrrolidin-1-yl)-3,3-dimethyl-1-oxobutan-2-yl)amino)-2-oxoethyl)cyclohexyl)picolinamide]: the concentration for 50% growth inhibition (GI50) in assay [1] (Homo sapiens, 120 h) was 35 nM. Moreover, the DC50 on HiBiT-tagged BCL-xL was found to be 2 nM.
For `Cc1ncsc1-c1ccc([C@H](C)NC(=O)[C@@H]2C[C@@H](O)CN2C(=O)[C@@H](NC(=O)CCOCCOCCOCCNC(=O)c2nc(N3CCCc4c3nnc(Nc3nc5ccccc5s3)c4C)ccc2-c2cnn(CC34CC5(C)CC(C)(C3)CC(OCCN3CCCC3)(C5)C4)c2C)C(C)(C)C)cc1` [Example 159, 6-(3-(benzo[d]thiazol-2-ylamino)-4-methyl-6,7-dihydropyrido[2,3-c]pyridazin-8(5H)-yl)-3-(1-(((1r,3R,5S,7s)-3,5-dimethyl-7-(2-(pyrrolidin-1-yl)ethoxy)adamantan-1-yl)methyl)-5-methyl-1H-pyrazol-4-yl)-N—((S)-14-((2S,4R)-4-hydroxy-2-(((S)-1-(4-(4-methylthiazol-5-yl)phenyl)ethyl)carbamoyl)pyrrolidine-1-carbonyl)-15,15-dimethyl-12-oxo-3,6,9-trioxa-13-azahexadecyl)picolinamide], the GI50 in assay [1] (Homo sapiens, 120 h) stood at 8 nM. For the same compound, the DC50 at HiBiT-tagged BCL-xL is over 1670 nM.
Turning to `Cc1ncsc1-c1ccc([C@H](C)NC(=O)[C@@H]2C[C@@H](O)CN2C(=O)[C@@H](NC(=O)COC2CCN(C(=O)c3nc(N4CCCc5c4nnc(Nc4nc6ccccc6s4)c5C)ccc3-c3cnn(CC45CC6(C)CC(C)(C4)CC(OCCN4CCCC4)(C6)C5)c3C)CC2)C(C)(C)C)cc1` [Example 166, (2S,4R)-1-((S)-2-(2-((1-(6-(3-(benzo[d]thiazol-2-ylamino)-4-methyl-6,7-dihydropyrido[2,3-c]pyridazin-8(5H)-yl)-3-(1-(((1r,3R,5S,7s)-3,5-dimethyl-7-(2-(pyrrolidin-1-yl)ethoxy)adamantan-1-yl)methyl)-5-methyl-1H-pyrazol-4-yl)picolinoyl)piperidin-4-yl)oxy)acetamido)-3,3-dimethylbutanoyl)-4-hydroxy-N—((S)-1-(4-(4-methylthiazol-5-yl)phenyl)ethyl)pyrrolidine-2-carboxamide], the GI50 in assay [1] (Homo sapiens, 120 h) is 68 nM. Also, the DC50 at HiBiT-tagged BCL-xL was 1 nM.
On to `Cc1ncsc1-c1ccc([C@H](C)NC(=O)[C@@H]2C[C@@H](O)CN2C(=O)[C@@H](NC(=O)CCOCCOCCNC(=O)c2nc(N3CCCc4c3nnc(Nc3nc5ccccc5s3)c4C)ccc2-c2cnn(CC34CC5(OCCN6CCCC6)C[C@](C)(C3)C[C@](C)(C4)C5)c2C)C(C)(C)C)cc1` [Example 158, 6-(3-(benzo[d]thiazol-2-ylamino)-4-methyl-6,7-dihydropyrido[2,3-c]pyridazin-8(5H)-yl)-3-(1-(((1r,3R,5S,7s)-3,5-dimethyl-7-(2-(pyrrolidin-1-yl)ethoxy)adamantan-1-yl)methyl)-5-methyl-1H-pyrazol-4-yl)-N-(2-(2-(3-(((S)-1-((2S,4R)-4-hydroxy-2-(((S)-1-(4-(4-methylthiazol-5-yl)phenyl)ethyl)carbamoyl)pyrrolidin-1-yl)-3,3-dimethyl-1-oxobutan-2-yl)amino)-3-oxopropoxy)ethoxy)ethyl)picolinamide], for which the GI50 in assay [1] worked out at 10 nM. Further, the DC50 at HiBiT-tagged BCL-xL is over 1670 nM.
`Cc1ncsc1-c1ccc([C@H](C)NC(=O)[C@@H]2C[C@@H](O)CN2C(=O)[C@@H](NC(=O)[C@H]2CC[C@H](NC(=O)c3nc(N4CCCc5c4nnc(Nc4nc6ccccc6s4)c5C)ccc3-c3cnn(CC45CC6(C)CC(C)(C4)CC(OCCN4CCCC4)(C6)C5)c3C)CC2)C(C)(C)C)cc1` [Example 162, 6-(3-(benzo[d]thiazol-2-ylamino)-4-methyl-6,7-dihydropyrido[2,3-c]pyridazin-8(5H)-yl)-3-(1-(((1r,3R,5S,7s)-3,5-dimethyl-7-(2-(pyrrolidin-1-yl)ethoxy)adamantan-1-yl)methyl)-5-methyl-1H-pyrazol-4-yl)-N-((1S,4R)-4-(((S)-1-((2S,4R)-4-hydroxy-2-(((S)-1-(4-(4-methylthiazol-5-yl)phenyl)ethyl)carbamoyl)pyrrolidin-1-yl)-3,3-dimethyl-1-oxobutan-2-yl)carbamoyl)cyclohexyl)picolinamide]: the GI50 in assay [1] (Homo sapiens, 120 h) came to 222 nM. Besides, the DC50 on HiBiT-tagged BCL-xL was over 1670 nM.
For `Cc1ncsc1-c1ccc([C@H](C)NC(=O)[C@@H]2C[C@@H](O)CN2C(=O)[C@@H](NC(=O)CCOC2CCN(C(=O)c3nc(N4CCCc5c4nnc(Nc4nc6ccccc6s4)c5C)ccc3-c3cnn(CC45CC6(C)CC(C)(C4)CC(OCCN4CCCC4)(C6)C5)c3C)CC2)C(C)(C)C)cc1` [Example 167, (2S,4R)-1-((S)-2-(3-((1-(6-(3-(benzo[d]thiazol-2-ylamino)-4-methyl-6,7-dihydropyrido[2,3-c]pyridazin-8(5H)-yl)-3-(1-(((1r,3R,5S,7s)-3,5-dimethyl-7-(2-(pyrrolidin-1-yl)ethoxy)adamantan-1-yl)methyl)-5-methyl-1H-pyrazol-4-yl)picolinoyl)piperidin-4-yl)oxy)propanamido)-3,3-dimethylbutanoyl)-4-hydroxy-N—((S)-1-(4-(4-methylthiazol-5-yl)phenyl)ethyl)pyrrolidine-2-carboxamide], the 50% growth inhibitory concentration (GI50) in assay [1] (Homo sapiens, 120 h) stood at 136 nM. For the same compound, the DC50 on HiBiT-tagged BCL-xL was 2 nM.
`Cc1ncsc1-c1ccc([C@H](C)NC(=O)[C@@H]2C[C@@H](O)CN2C(=O)C(NC(=O)CCCCCCCCN(C)C(=O)c2nc(N3CCCc4c3nnc(Nc3nc5ccccc5s3)c4C)ccc2-c2cnn(CC34CC5(C)CC(C)(C3)CC(OCCN3CCCC3)(C5)C4)c2C)C(C)(C)C)cc1` (stereo partly drawn) [Example 161, 6-(3-(benzo[d]thiazol-2-ylamino)-4-methyl-6,7-dihydropyrido[2,3-c]pyridazin-8(5H)-yl)-3-(1-(((1r,3R,5S,7s)-3,5-dimethyl-7-(2-(pyrrolidin-1-yl)ethoxy)adamantan-1-yl)methyl)-5-methyl-1H-pyrazol-4-yl)-N-(9-(((S)-1-((2S,4R)-4-hydroxy-2-(((S)-1-(4-(4-methylthiazol-5-yl)phenyl)ethyl)carbamoyl)pyrrolidin-1-yl)-3,3-dimethyl-1-oxobutan-2-yl)amino)-9-oxononyl)-N-methylpicolinamide]: the GI50 in assay [1] (Homo sapiens, 120 h) came out at 8 nM. For the same compound, the DC50 at HiBiT-tagged BCL-xL came out at 0.4 nM.

The record behind these values is patent US20240376094A2, “SELECTIVE BCL-XL PROTAC COMPOUNDS AND METHODS OF USE” (Les Laboratoires Servier, priority 2021, published 2024).
